The supplement of paper PMC10307832

Assays:
Assay in all cases: relative viability (nuclei count vs DMSO), 5 days (fraction); higher = more cells survive
[1] = compound: CN(C)C[C@@H]1CCn2cc(c3ccccc32)C2=C(C(=O)NC2=O)c2cn(c3ccccc23)CCO1 [Ruboxistaurin] + CS(=O)(=O)CCNCc1ccc(-c2ccc3ncnc(Nc4ccc(OCc5cccc(F)c5)c(Cl)c4)c3c2)o1 [Lapatinib] (partner 2 µM)
Summary of the method: (§1)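 Lung cancer cell lines were pin-tool dosed in 1536-well plates on the day after seeding, with either a lone drug or a fixed anchor-drug dose plus five library-drug doses (not always all listed) in √10 steps. Nuclei were counted on 4× images after 5 days. Relative viability is the ratio of treated-well to vehicle-well nuclei counts, with each value a median of duplicate plates.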

[2] = compound: CN(C)C[C@@H]1CCn2cc(c3ccccc32)C2=C(C(=O)NC2=O)c2cn(c3ccccc23)CCO1 [Ruboxistaurin] + CC(=O)c1c(C)c2cnc(Nc3ccc(N4CCNCC4)cn3)nc2n(C2CCCC2)c1=O [Palbociclib] (partner 0.5 µM)
Summary of the method: as §1

[3] = compound: CN(C)C[C@@H]1CCn2cc(c3ccccc32)C2=C(C(=O)NC2=O)c2cn(c3ccccc23)CCO1 [Ruboxistaurin] + N=C(N)NC(=N)NCCc1ccccc1 [Phenformin] (partner 250 µM)
Summary of the method: as §1

[4] = compound: CN(C)C[C@@H]1CCn2cc(c3ccccc32)C2=C(C(=O)NC2=O)c2cn(c3ccccc23)CCO1 [Ruboxistaurin] + O=C(c1cc(Cc2n[nH]c(=O)c3ccccc23)ccc1F)N1CCN(C(=O)C2CC2)CC1 [Olaparib] (partner 8 µM)
Summary of the method: as §1

[5] = compound: CN(C)C[C@@H]1CCn2cc(c3ccccc32)C2=C(C(=O)NC2=O)c2cn(c3ccccc23)CCO1 [Ruboxistaurin] + Nc1nc2[nH]cc(CCc3ccc(C(=O)N[C@@H](CCC(=O)O)C(=O)O)cc3)c2c(=O)[nH]1 [Pemetrexed] (partner 0.2 µM)
Summary of the method: as §1

| Cell Line | relative viability ([1]; first compound 0.08 µM) | relative viability ([1]; first compound 0.8 µM) | relative viability ([1]; first compound 2.53 µM) | relative viability ([1]; first compound 8 µM) | relative viability ([2]; first compound 0.08 µM) | relative viability ([2]; first compound 0.8 µM) | relative viability ([2]; first compound 2.53 µM) | relative viability ([2]; first compound 8 µM) | relative viability ([3]; first compound 0.08 µM) | relative viability ([3]; first compound 0.8 µM) | relative viability ([3]; first compound 2.53 µM) | relative viability ([3]; first compound 8 µM) | relative viability ([4]; first compound 0.08 µM) | relative viability ([4]; first compound 0.8 µM) | relative viability ([4]; first compound 2.53 µM) | relative viability ([4]; first compound 8 µM) | relative viability ([5]; first compound 0.08 µM) | relative viability ([5]; first compound 0.8 µM) | relative viability ([5]; first compound 2.53 µM) | relative viability ([5]; first compound 8 µM) |
| --- | --- | --- | --- | --- | --- | --- | --- | --- | --- | --- | --- | --- | --- | --- | --- | --- | --- | --- | --- | --- |
| LXF-289 | 0.914 | 0.88 | 0.886 | 0.864 | 0.589 | 0.542 | 0.571 | 0.588 | 0.514 | 0.509 | 0.488 | 0.594 | 1.08 | 1.01 | 1.07 | 1.18 | 0.884 | 0.91 | 0.906 | 1.02 |
| NCI-H23 | 1.38 | 0.97 | 1.21 | 0.819 | 0.492 | 0.445 | 0.53 | 0.461 | 0.766 | 0.781 | 0.819 | 0.852 | 0.41 | 0.251 | 0.361 | 0.254 | 0.73 | 0.541 | 0.666 | 0.45 |
| NCI-H322M | 0.589 | 0.54 | 0.543 | 0.543 | 0.492 | 0.47 | 0.454 | 0.384 | 0.838 | 0.67 | 0.656 | 0.455 | 0.764 | 0.675 | 0.805 | 0.329 | 0.646 | 0.528 | 0.596 | 0.47 |
| NCI-H358 | 0.479 | 0.408 | 0.421 | 0.406 | 0.14 | 0.128 | 0.129 | 0.131 | 0.32 | 0.255 | 0.293 | 0.263 | 0.748 | 0.587 | 0.604 | 0.458 | 0.171 | 0.175 | 0.177 | 0.162 |
| NCI-H460 | 1.03 | 0.966 | 1.02 | 1.01 | 0.158 | 0.125 | 0.201 | 0.14 | 0.535 | 0.497 | 0.533 | 0.485 | 0.461 | 0.398 | 0.415 | 0.391 | 0.0661 | 0.0571 | 0.0621 | 0.0636 |
| NCI-H520 | 0.904 | 0.772 | 0.867 | 0.864 | 0.236 | 0.222 | 0.246 | 0.185 | 0.766 | 0.54 | 0.599 | 0.393 | 0.321 | 0.341 | 0.328 | 0.291 | 0.666 | 0.506 | 0.532 | 0.494 |
| NCI-H647 | 1.06 | 0.97 | 1.08 | 0.815 | 0.473 | 0.395 | 0.432 | 0.415 | 0.656 | 0.483 | 0.599 | 0.409 | 0.575 | 0.563 | 0.912 | 0.562 | 0.173 | 0.222 | 0.196 | 0.161 |
